pEC50: −log10 of the molar value.
molecular target: human NAMPT (Homo sapiens (Human), UniProt P43490); assay: NMN fluorescence biochemical assay (human recombinant NAMPT enzyme assay)
Description: Compounds described herein were assayed for their ability to stimulate the synthesis of nicotinamide mononucleotide (NMN) by the enzyme NAMPT. The human recombinant enzyme assay measures the activation of the enzyme activity by compounds using recombinant enzyme and substrates in a buffered cell-free system. The assay conditions closely mimic cellular environments. Dose responses were measured using an assay to detect the formation of nicotinamide mono-nucleotide. All experiments were performed in the 384-well format. Generally, 0.5 μL of DMSO containing varying concentrations of the test compound was mixed with 10 μL of the enzyme reagent solution. Enzyme reactions were initiated with the addition of […] containing the substrates. The final assay conditions were as follows: 6 nM human NAMPT, 2.5 mM ATP, 20 μM PRPP and 150 μM nicotinamide in 50 mM HEPES, pH 7.2, 1 mM DTT, 1 mM CHAPS 50 mM NaCl, 100 mM MgCl2. Following an incubation of 60 min at ambient temperature, 10 μL of 20% acetophenone in DMSO was added, followed by 10 μL of 2 M KOH and 40 μL of formic acid. The plates were read for fluorescence (Excitation/Emission=355 nm/460 nm) using an EnVision plate reader after 40 mins of incubation at ambient temperature.

Sequence of human NAMPT (P43490 whole entry): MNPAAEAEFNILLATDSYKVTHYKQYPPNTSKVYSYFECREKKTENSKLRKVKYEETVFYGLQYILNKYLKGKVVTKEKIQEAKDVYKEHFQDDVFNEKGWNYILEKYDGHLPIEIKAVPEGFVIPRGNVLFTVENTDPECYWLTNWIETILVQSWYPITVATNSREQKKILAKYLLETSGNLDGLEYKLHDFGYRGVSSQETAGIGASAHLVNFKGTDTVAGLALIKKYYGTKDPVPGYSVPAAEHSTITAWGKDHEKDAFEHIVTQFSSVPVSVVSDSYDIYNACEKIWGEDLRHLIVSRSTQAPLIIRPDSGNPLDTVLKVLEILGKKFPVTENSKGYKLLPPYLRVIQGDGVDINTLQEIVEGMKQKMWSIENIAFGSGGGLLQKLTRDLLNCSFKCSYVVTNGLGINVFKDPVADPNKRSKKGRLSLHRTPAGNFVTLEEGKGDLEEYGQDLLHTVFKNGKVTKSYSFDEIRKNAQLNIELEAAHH

Q: How did the “AC1.4 Human” value turn out when `Cc1ccc(Cc2ccc(NC(=O)OCc3cn[nH]c3)cc2)cn1` [Compound 65, (1H-pyrazol-4-yl)methyl (4-((6-methylpyridin-3-yl)methyl)phenyl)carbamate] was run?
A: 0.58 µM

Q: What about the pEC50 of the same compound?
A: 4.43

Q: Which “AC1.4 Human” value does the source give for `Cc1ccc(C(=O)NCc2ccc(NC(=O)OCc3cncs3)cc2)cn1` [Compound 66, thiazol-5-ylmethyl (4-((6-methylnicotinamido)methyl)phenyl)carbamate] here?
A: 0.59 µM

Q: And the pEC50?
A: 5.29

Q: Which “AC1.4 Human” value does the source give for `COc1ccc(COC(=O)Nc2ccc(CC3CCN(C4COC4)CC3)cc2)cc1` [Compound 67, 4-methoxybenzyl (4-((1-(oxetan-3-yl)piperidin-4-yl)methyl)phenyl)carbamate] here?
A: 0.59 µM

Q: And the pEC50?
A: 4.67

Q: What does the source list for `C[C@H](NC(=O)[C@@H]1C[C@@H]2[C@H](C1)C2(F)F)c1ccc(NC(=O)OCc2cnco2)cc1` [Compound 68, 1,3-oxazol-5-ylmethyl N-{4-[(1S)-1-{[(1R,3s,5S)-6,6-difluorobicyclo[3.1.0]hexan-3-yl]formamido}ethyl]phenyl}carbamate]?
A: AC1.4 Human: 0.59 µM; pEC50: 4.96

Q: How did the “AC1.4 Human” value turn out when `CN(Cc1ccc(NC(=O)OCc2ccc(Cl)cc2)cc1)C(=O)c1cn[nH]c1F` [Compound 69, (4-chlorophenyl)methyl N-(4-{[1-(3-fluoro-2H-pyrazol-4-yl)-N-methylformamido]methyl}phenyl)carbamate] was run?
A: 0.59 µM

Q: What about the pEC50 of the same compound?
A: 5.51

Q: Which results are given for `CN(Cc1ccc(NC(=O)OCc2ccc(Cl)cc2)cc1)C(=O)c1n[nH]cc1F` [Compound 71, (4-chlorophenyl)methyl N-(4-{[1-(4-fluoro-1H-pyrazol-3-yl)-N-methylformamido]methyl}phenyl)carbamate]?
A: AC1.4 Human: 0.61 µM; pEC50: 5.60

Q: How did the “AC1.4 Human” value turn out when `COC1CCN(C(=O)N[C@@H](C)c2ccc(NC(=O)OCc3ccc(Cl)cc3)cc2)CC1` [Compound 72, 4-chlorobenzyl (S)-(4-(1-(4-methoxypiperidine-1-carboxamido)ethyl)phenyl)carbamate] was run?
A: 0.62 µM

Q: What about the pEC50 of the same compound?
A: 5.28

Q: What does the source list for `O=C(Nc1ccc(CN2CCN(c3ncccn3)CC2)cc1)OCc1ccc(Cl)cc1` [Compound 73, 4-chlorobenzyl (4-((4-(pyrimidin-2-yl)piperazin-1-yl)methyl)phenyl)carbamate]?
A: AC1.4 Human: 0.62 µM; pEC50: 5.75

Q: `CN(Cc1ccc(NC(=O)OCc2ccc(Cl)cc2)cc1)C(=O)c1ccnn1C1CCC1` [Compound 74, (4-chlorophenyl)methyl N-(4-{[1-(2-cyclobutylpyrazol-3-yl)-N-methylformamido]methyl}phenyl)carbamate] was tested. Which “AC1.4 Human” value did it give?
A: 0.64 µM

Q: What about the pEC50 of the same compound?
A: 5.85

Q: With `C[C@H](NC(=O)C1CC(F)(F)C1)c1ccc(NC(=O)OCc2cnco2)cc1` [Compound 75, 1,3-oxazol-5-ylmethyl N-{4-[(1S)-1-[(3,3-difluorocyclobutyl)formamido]ethyl]phenyl}carbamate] as the compound, how does the “AC1.4 Human” value read?
A: 0.64 µM

Q: And the pEC50?
A: 4.58

Q: `CCc1ccc(C(=O)N[C@@H](C)c2ccc(NC(=O)OCc3ccc(Cl)cc3)cc2)cn1` [Compound 76, (4-chlorophenyl)methyl N-{4-[(1S)-1-[(6-ethylpyridin-3-yl)formamido]ethyl]phenyl}carbamate] was tested. Which “AC1.4 Human” value did it give?
A: 0.64 µM

Q: And the pEC50?
A: 6.05

Q: `COCCn1nccc1C(=O)N(C)Cc1ccc(NC(=O)OCc2ccc(Cl)cc2)cc1` [Compound 77, (4-chlorophenyl)methyl N-[4-({1-[2-(2-methoxyethyl)pyrazol-3-yl]-N-methylformamido}methyl)phenyl]carbamate] was tested. Which “AC1.4 Human” value did it give?
A: 0.65 µM

Q: And the pEC50?
A: 5.78

Q: Which results are given for `O=C(Nc1ccc(CNC(=O)c2ccncc2F)cc1)OCc1ccc(Cl)cc1` [Compound 78, (4-chlorophenyl)methyl N-(4-{[(3-fluoropyridin-4-yl)formamido]methyl}phenyl)carbamate]?
A: AC1.4 Human: 0.65 µM; pEC50: 5.13

Q: Which results are given for `CC(C)(C)OC(=O)N1CCC(Cc2ccc(NC(=O)OCc3cnco3)cc2)CC1` [Compound 79, tert-butyl 4-(4-(((oxazol-5-ylmethoxy)carbonyl)ami-no)benzyl)piperidine-1-carboxylate]?
A: AC1.4 Human: 0.66 µM; pEC50: 4.63

Q: `O=C(Nc1ccc(CC2CCN(C3COC3)CC2)cc1)OCc1cnco1` [Compound 80, oxazol-5-ylmethyl (4-((1-(oxetan-3-yl)piperidin-4-yl)methyl)phenyl)carbamate] was tested. Which “AC1.4 Human” value did it give?
A: 0.66 µM

Q: What about the pEC50 of the same compound?
A: 4.54

Q: With `CN1CC(=O)NC[C@@H]1c1ccc(NC(=O)OCc2ccc(Cl)cc2F)cc1` [Compound 81, 4-chloro-2-fluorobenzyl (S)-(4-(1-methyl-5-oxopiperazin-2-yl)phenyl)carbamate] as the compound, how does the “AC1.4 Human” value read?
A: 0.66 µM

Q: What about the pEC50 of the same compound?
A: 5.47

Q: Which “AC1.4 Human” value does the source give for `CCc1ccc(C(=O)NCc2ccc(NC(=O)OCc3ccc(Cl)cc3)cc2)cn1` [Compound 82, (4-chlorophenyl)methyl N-(4-{[(6-ethylpyridin-3-yl)formamido]methyl}phenyl)carbamate] here?
A: 0.66 µM

Q: What about the pEC50 of the same compound?
A: 5.41

Q: Which results are given for `COc1ccc(COC(=O)Nc2ccc(CN3CCN(c4ccccn4)CC3)cc2)cc1` [Compound 83, (4-methoxyphenyl)methyl N-(4-{[4-(pyridin-2-yl)piperazin-1-yl]methyl}phenyl)carbamate]?
A: AC1.4 Human: 0.66 µM; pEC50: 5.09

Q: `O=C(Nc1ccc(CN2CCC3(CC3)C2=O)cc1)OCc1ccc(Cl)cc1` [Compound 84, (4-chlorophenyl)methyl N-[4-({4-oxo-5-azaspiro[2.4]heptan-5-yl}methyl)phenyl]carbamate] was tested. Which “AC1.4 Human” value did it give?
A: 0.66 µM

Q: What about the pEC50 of the same compound?
A: 5.51

Q: What does the source list for `Cc1ncc(C(=O)N(C)Cc2ccc(NC(=O)OCc3ccc(Cl)cc3)cc2)o1` [Compound 85, (4-chlorophenyl)methyl N-(4-{[N-methyl-1-(2-methyl-1,3-oxazol-5-yl)formamido]methyl}phenyl)carbamate]?
A: AC1.4 Human: 0.67 µM; pEC50: 5.20

Q: What does the source list for `O=C(Nc1ccc(CN2CCOCC2=O)cc1)OCc1ccc(Cl)cc1` [Compound 86, (4-chlorophenyl)methyl N-{4-[(3-oxomorpholin-4-yl)methyl]phenyl}carbamate]?
A: AC1.4 Human: 0.68 µM; pEC50: 5.21

Q: Which “AC1.4 Human” value does the source give for `CC(C)C(=O)N1CCC(Cc2ccc(NC(=O)OCc3ccc(Cl)cc3)cc2)CC1` [Compound 87, 4-chlorobenzyl (4-((1-isobutyrylpiperidin-4-yl)methyl)phenyl)carbamate] here?
A: 0.68 µM

Q: What about the pEC50 of the same compound?
A: 5.76

Q: Which results are given for `O=C(Nc1ccc(C2CCN(CC(F)(F)F)CC2)cc1)OCc1cnco1` [Compound 88, 1,3-oxazol-5-ylmethyl N-{4-[1-(2,2,2-trifluoroethyl)piperidin-4-yl]phenyl}]?
A: AC1.4 Human: 0.69 µM; pEC50: 4.43

Q: `C[C@@H](c1ccc(NC(=O)OCc2ccc(Cl)cc2)cc1)N(C)C(=O)N1CCC1` [Compound 89, 4-chlorobenzyl (S)-(4-(1-(N-methylazetidine-1-carboxamido)ethyl)phenyl)carbamate] was tested. Which “AC1.4 Human” value did it give?
A: 0.71 µM

Q: And the pEC50?
A: 5.03

Q: What does the source list for `COc1cc(C(=O)N(C)Cc2ccc(NC(=O)OCc3ccc(Cl)cc3)cc2)n(C)n1` [Compound 90, (4-chlorophenyl)methyl N-(4-{[1-(5-methoxy-2-methylpyrazol-3-yl)-N-methylformamido]methyl}phenyl)carbamate]?
A: AC1.4 Human: 0.72 µM; pEC50: 5.14

Q: Which results are given for `CN(Cc1ccc(NC(=O)OCc2ccc(Cl)cc2)cc1)C(=O)c1ccn[nH]1` [Compound 91, (4-chlorophenyl)methyl N-{4-[(N-methyl-1-2H-pyrazol-3-ylformamido)methyl]phenyl}carbamate]?
A: AC1.4 Human: 0.74 µM; pEC50: 5.42

Q: How did the “AC1.4 Human” value turn out when `COc1cnn(C)c1C(=O)N[C@@H](C)c1ccc(NC(=O)OCc2ccc(Cl)cc2)cc1` [Compound 92, (4-chlorophenyl)methyl N-{4-[(1S)-1-[(4-methoxy-2-methylpyrazol-3-yl)formamido]ethyl]phenyl}carbamate] was run?
A: 0.75 µM

Q: What about the pEC50 of the same compound?
A: 5.49

Q: Which results are given for `CC(=O)N1CCC(OCc2ccc(NC(=O)OCc3ccc(Cl)cc3)cc2)CC1` [Compound 93, 4-chlorobenzyl (4-(((1-acetylpiperidin-4-yl)oxy)methyl)phenyl)carbamate]?
A: AC1.4 Human: 0.75 µM; pEC50: 5.17

Q: How did the “AC1.4 Human” value turn out when `CC(C)Cn1nccc1C(=O)N(C)Cc1ccc(NC(=O)OCc2ccc(Cl)cc2)cc1` [Compound 94, (4-chlorophenyl)methyl N-[4-({N-methyl-1-[2-(2-methylpropyl)pyrazol-3-yl]formamido}methyl)phenyl]carbamate] was run?
A: 0.75 µM

Q: And the pEC50?
A: 5.63

Q: With `COc1cc(C(=O)N[C@@H](C)c2ccc(NC(=O)OCc3ccc(Cl)cc3)cc2)n(C)n1` [Compound 95, (4-chlorophenyl)methyl N-(4-[(1S)-1-[(5-methoxy-2-methylpyrazol-3-yl)formamido]ethyl]phenyl}carbamate] as the compound, how does the “AC1.4 Human” value read?
A: 0.75 µM

Q: And the pEC50?
A: 5.51

Q: Which “AC1.4 Human” value does the source give for `C[C@H](NC(=O)N1CCC1)c1ccc(NC(=O)OCc2ccc(Cl)cc2)cc1` [Compound 96] here?
A: 0.75 µM

Q: What about the pEC50 of the same compound?
A: 5.46

Q: For `C[C@H](NC(=O)C1CCC(F)(F)C1)c1ccc(NC(=O)OCc2cnco2)cc1` (stereo partly drawn) [Compound 97, 1,3-oxazol-5-ylmethyl N-{4-[(1S)-1-[(3,3-difluorocyclopentyl)formamido]ethyl]phenyl}carbamate], which “AC1.4 Human” value is on record?
A: 0.76 µM

Q: What about the pEC50 of the same compound?
A: 4.63

Q: With `COC(=O)N1CCC(Cc2ccc(NC(=O)OCc3ccc(Cl)cc3)cc2)CC1` [Compound 98, methyl 4-(4-((((4-chlorobenzyl)oxy)carbonyl)amino)benzyl)piperidine-1-carboxylate] as the compound, how does the “AC1.4 Human” value read?
A: 0.78 µM

Q: What about the pEC50 of the same compound?
A: 5.83

— patent US20240279215A1 (Cytokinetics, Incorporated, priority 2022, published 2024)
